The kinase profiling compilation of Christmann-Franck et al. (2016)

What was measured:
Assay in all cases: radiometric filter-binding kinase assay
MKNK2 (human) = MKNK2 (human) (UniProt Q9HBH9)
RPS6KA1 KD1 KD2 (human) = RPS6KA1 KD1 KD2 (human) (UniProt Q15418)
DAPK1 (human) = DAPK1 (human) (UniProt P53355)
CSK (human) = CSK (human) (UniProt P41240)
SRC (human) = SRC (human) (UniProt P12931)
MKNK1 (human) = MKNK1 (human) (UniProt Q9BUB5)
FGFR1 (human) = FGFR1 (human) (UniProt P11362)
NTRK1 (human) = NTRK1 (human) (UniProt P04629)
MINK1 (human) = MINK1 (human) (UniProt Q8N4C8)
PRKACA (human) = PRKACA (human) (UniProt P17612)
EPHB3 (human) = EPHB3 (human) (UniProt P54753)
Chain of EPHB3 (human) (P54753 whole entry, looked up): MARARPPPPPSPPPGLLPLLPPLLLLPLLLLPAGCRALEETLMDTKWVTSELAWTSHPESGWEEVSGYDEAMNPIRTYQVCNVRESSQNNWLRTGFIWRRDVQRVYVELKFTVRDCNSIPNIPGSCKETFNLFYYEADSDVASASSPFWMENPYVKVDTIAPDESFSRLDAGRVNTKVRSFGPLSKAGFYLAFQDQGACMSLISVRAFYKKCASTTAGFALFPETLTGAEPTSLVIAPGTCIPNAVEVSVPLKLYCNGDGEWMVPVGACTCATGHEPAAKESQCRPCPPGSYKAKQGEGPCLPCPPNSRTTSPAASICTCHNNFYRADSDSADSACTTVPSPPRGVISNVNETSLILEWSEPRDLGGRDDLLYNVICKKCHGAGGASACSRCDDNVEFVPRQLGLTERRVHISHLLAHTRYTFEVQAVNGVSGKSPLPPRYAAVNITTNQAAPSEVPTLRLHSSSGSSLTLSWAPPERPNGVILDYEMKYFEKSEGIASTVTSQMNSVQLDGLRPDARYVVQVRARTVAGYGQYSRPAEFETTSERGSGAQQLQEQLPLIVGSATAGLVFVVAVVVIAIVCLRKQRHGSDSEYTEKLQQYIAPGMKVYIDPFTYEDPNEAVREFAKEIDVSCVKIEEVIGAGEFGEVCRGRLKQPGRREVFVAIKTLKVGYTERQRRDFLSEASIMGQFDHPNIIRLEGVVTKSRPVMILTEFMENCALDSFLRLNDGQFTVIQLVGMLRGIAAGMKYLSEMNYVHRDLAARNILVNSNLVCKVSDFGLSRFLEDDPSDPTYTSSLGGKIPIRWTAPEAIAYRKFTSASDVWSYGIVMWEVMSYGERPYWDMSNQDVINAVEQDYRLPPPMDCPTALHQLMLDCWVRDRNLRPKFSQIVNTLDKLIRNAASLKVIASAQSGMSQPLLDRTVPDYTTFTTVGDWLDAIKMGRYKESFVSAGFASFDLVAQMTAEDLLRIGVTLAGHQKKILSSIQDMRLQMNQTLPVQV

MAP3K9 (human) = MAP3K9 (human) (UniProt P80192)
ERBB4 (human) = ERBB4 (human) (UniProt Q15303)
PHKG1 (human) = PHKG1 (human) (UniProt Q16816)
Chain of PHKG1 (human) (Q16816 whole entry, looked up): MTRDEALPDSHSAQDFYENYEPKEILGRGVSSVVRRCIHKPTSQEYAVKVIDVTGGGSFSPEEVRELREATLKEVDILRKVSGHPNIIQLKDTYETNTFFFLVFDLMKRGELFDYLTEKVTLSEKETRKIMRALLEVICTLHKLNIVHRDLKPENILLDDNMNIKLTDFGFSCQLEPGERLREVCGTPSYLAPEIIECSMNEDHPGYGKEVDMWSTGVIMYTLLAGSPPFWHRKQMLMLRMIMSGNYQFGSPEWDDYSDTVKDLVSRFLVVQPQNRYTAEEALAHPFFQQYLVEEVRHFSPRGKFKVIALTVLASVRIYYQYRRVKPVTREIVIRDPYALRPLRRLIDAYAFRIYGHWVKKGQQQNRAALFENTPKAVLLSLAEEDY

PRKAA1 or PRKAA2 (rat) = details: accession and sequence are those of the human protein
MAPKAPK3 (human) = MAPKAPK3 (human) (UniProt Q16644)
INSRR (human) = INSRR (human) (UniProt P14616)
MELK (human) = MELK (human) (UniProt Q14680)
Chain of MELK (human) (Q14680 whole entry, looked up): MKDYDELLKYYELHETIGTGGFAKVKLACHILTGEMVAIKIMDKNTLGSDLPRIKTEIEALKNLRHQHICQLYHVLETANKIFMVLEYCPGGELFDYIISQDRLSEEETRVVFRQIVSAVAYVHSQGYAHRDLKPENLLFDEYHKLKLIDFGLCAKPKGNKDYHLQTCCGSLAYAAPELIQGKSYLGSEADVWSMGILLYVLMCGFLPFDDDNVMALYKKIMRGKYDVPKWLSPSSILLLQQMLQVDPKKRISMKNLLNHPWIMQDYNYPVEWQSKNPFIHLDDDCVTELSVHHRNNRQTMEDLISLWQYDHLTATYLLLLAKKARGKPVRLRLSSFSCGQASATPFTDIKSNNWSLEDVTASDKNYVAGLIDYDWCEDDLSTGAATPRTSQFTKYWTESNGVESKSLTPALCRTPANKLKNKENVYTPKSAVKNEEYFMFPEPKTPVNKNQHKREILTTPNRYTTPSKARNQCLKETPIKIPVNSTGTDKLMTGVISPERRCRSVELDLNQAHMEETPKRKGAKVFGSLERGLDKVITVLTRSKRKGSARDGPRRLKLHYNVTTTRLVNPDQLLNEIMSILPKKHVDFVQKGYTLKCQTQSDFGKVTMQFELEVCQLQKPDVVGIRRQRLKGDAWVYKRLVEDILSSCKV

TTK (human) = TTK (human) (UniProt P33981)
AURKB (human) = AURKB (human) (UniProt Q96GD4)
CDK2 CCNA2 (human) = CDK2 CCNA2 (human) (UniProt P20248+P24941)
GSK3B (human) = GSK3B (human) (UniProt P49841)
CHEK2 (human) = CHEK2 (human) (UniProt O96017)
IKBKB (human) = IKBKB (human) (UniProt O14920)
EEF2K (human) = EEF2K (human) (UniProt O00418)
MAPK13 (human) = MAPK13 (human) (UniProt O15264)
MAP2K2 (human) = MAP2K2 (human) (UniProt P36507)
PRKCZ (human) = PRKCZ (human) (UniProt Q05513)
ROCK2 (rat) = details: accession and sequence are those of the human protein
MAPK1 (human) = MAPK1 (human) (UniProt P28482)
Chain of MAPK1 (human) (P28482 whole entry, looked up): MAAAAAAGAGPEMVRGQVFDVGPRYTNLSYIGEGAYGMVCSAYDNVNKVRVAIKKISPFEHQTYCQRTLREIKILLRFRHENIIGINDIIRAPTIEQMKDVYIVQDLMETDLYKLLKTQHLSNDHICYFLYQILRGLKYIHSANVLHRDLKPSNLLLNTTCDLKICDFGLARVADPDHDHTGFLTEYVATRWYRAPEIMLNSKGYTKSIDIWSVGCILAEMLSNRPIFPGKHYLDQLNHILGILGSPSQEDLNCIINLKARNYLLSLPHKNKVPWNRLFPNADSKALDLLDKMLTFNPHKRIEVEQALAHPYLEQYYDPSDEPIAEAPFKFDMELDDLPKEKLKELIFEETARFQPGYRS

LCK (mouse) = details: accession and sequence are those of the human protein
MYLK (human) = MYLK (human) (UniProt Q15746)
CSNK2A1 (human) = CSNK2A1 (human) (UniProt P68400)
[1] = target: STK11 CAB39 STRADA (human) (UniProt Q9Y376+Q7RTN6+Q15831)
Chain of STK11 CAB39 STRADA (human) (Q15831 whole entry, looked up): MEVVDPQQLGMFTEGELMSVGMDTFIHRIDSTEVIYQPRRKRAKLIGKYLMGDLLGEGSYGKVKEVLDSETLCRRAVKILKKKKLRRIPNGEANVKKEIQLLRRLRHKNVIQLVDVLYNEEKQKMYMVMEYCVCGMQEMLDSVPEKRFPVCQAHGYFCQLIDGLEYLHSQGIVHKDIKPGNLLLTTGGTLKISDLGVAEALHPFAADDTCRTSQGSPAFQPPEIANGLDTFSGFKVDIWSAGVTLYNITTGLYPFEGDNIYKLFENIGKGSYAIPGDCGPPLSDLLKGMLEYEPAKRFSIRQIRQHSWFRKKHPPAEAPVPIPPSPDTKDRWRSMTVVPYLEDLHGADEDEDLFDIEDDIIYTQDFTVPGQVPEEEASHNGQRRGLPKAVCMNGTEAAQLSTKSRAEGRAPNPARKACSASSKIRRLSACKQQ
Chain of STK11 CAB39 STRADA (human) (Q7RTN6 whole entry, looked up): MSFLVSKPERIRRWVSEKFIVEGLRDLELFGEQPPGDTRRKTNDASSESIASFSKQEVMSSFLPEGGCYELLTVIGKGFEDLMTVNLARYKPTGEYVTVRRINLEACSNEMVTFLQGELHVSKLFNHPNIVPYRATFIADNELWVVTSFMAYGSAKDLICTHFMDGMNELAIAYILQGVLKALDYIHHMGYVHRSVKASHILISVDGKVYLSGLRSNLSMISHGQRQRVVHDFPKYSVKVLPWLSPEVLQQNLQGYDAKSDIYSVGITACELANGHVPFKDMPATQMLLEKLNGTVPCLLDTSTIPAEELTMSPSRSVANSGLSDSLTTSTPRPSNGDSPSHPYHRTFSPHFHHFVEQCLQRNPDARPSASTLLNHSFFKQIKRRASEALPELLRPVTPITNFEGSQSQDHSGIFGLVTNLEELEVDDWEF
Chain of STK11 CAB39 STRADA (human) (Q9Y376 whole entry, looked up): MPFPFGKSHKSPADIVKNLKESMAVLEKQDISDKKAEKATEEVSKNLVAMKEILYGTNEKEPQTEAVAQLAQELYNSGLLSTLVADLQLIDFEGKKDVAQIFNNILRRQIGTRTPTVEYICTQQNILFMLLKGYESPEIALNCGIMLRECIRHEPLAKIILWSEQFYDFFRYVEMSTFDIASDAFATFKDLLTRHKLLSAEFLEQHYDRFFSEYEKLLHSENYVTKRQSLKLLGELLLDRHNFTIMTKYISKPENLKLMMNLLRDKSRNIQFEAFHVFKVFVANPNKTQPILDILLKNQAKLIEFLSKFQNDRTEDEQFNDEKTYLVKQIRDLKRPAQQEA

MARK4 (human) = MARK4 (human) (UniProt Q96L34)

Chain of RPS6KA1 KD1 KD2 (human) (Q15418 whole entry, looked up): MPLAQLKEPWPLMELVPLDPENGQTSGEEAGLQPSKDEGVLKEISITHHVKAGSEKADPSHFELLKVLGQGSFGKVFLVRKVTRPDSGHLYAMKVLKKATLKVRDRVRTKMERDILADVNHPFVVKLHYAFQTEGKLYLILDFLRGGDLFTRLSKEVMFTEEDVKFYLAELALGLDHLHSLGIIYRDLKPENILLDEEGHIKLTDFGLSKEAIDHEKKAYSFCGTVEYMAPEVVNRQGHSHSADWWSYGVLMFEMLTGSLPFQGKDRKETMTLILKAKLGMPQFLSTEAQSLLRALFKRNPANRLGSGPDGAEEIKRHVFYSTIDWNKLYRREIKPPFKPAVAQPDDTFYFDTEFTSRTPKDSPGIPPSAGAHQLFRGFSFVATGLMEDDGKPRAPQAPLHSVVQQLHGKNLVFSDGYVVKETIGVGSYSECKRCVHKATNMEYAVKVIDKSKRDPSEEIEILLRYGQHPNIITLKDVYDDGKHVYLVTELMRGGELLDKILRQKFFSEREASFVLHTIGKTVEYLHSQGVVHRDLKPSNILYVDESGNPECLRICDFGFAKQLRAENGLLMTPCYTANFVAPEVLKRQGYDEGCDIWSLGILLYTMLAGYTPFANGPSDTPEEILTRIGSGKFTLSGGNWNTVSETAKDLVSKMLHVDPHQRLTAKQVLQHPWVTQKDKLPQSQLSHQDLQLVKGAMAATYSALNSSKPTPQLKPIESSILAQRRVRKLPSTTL
Chain of MKNK1 (human) (Q9BUB5 whole entry, looked up): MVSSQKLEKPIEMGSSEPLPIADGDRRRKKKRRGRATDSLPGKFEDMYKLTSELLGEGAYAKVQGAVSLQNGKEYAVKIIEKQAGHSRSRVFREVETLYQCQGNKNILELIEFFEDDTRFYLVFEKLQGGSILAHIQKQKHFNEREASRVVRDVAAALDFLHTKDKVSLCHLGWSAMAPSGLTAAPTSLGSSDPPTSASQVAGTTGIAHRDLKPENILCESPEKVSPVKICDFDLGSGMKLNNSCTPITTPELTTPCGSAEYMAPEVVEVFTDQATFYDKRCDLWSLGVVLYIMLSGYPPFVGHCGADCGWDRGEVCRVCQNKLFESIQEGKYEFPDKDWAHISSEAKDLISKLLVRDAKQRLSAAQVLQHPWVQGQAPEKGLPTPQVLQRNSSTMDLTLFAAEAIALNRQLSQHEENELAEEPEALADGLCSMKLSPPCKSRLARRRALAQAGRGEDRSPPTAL

## CCCCCc1ccc(/C=C/[C@H](O)[C@@H](CO)NC)cc1
MKNK2 (human); compound 0.1 µM
  residual activity: 111%
MKNK2 (human); compound 1.0 µM
  residual activity: 98%
MKNK2 (human); compound 10.0 µM
  residual activity: 102%
RPS6KA1 KD1 KD2 (human); compound 0.1 µM
  residual activity: 95%
RPS6KA1 KD1 KD2 (human); compound 1.0 µM
  residual activity: 98%
RPS6KA1 KD1 KD2 (human); compound 10.0 µM
  residual activity: 81%
DAPK1 (human); compound 0.1 µM
  residual activity: 109%
DAPK1 (human); compound 1.0 µM
  residual activity: 101%
DAPK1 (human); compound 10.0 µM
  residual activity: 103%
CSK (human); compound 0.1 µM
  residual activity: 104%
CSK (human); compound 1.0 µM
  residual activity: 101%
CSK (human); compound 10.0 µM
  residual activity: 98%
SRC (human); compound 0.1 µM
  residual activity: 105%
SRC (human); compound 1.0 µM
  residual activity: 100%
SRC (human); compound 10.0 µM
  residual activity: 111%
MKNK1 (human); compound 0.1 µM
  residual activity: 101%
MKNK1 (human); compound 1.0 µM
  residual activity: 92%
MKNK1 (human); compound 10.0 µM
  residual activity: 93%
FGFR1 (human); compound 0.1 µM
  residual activity: 115%
FGFR1 (human); compound 1.0 µM
  residual activity: 111%
FGFR1 (human); compound 10.0 µM
  residual activity: 104%
NTRK1 (human); compound 0.1 µM
  residual activity: 103%
NTRK1 (human); compound 1.0 µM
  residual activity: 110%
NTRK1 (human); compound 10.0 µM
  residual activity: 86%
MINK1 (human); compound 0.1 µM
  residual activity: 107%
MINK1 (human); compound 1.0 µM
  residual activity: 93%
MINK1 (human); compound 10.0 µM
  residual activity: 111%
PRKACA (human); compound 0.1 µM
  residual activity: 110%
PRKACA (human); compound 1.0 µM
  residual activity: 106%
PRKACA (human); compound 10.0 µM
  residual activity: 107%
EPHB3 (human); compound 0.1 µM
  residual activity: 104%
EPHB3 (human); compound 1.0 µM
  residual activity: 100%
EPHB3 (human); compound 10.0 µM
  residual activity: 86%
MAP3K9 (human); compound 0.1 µM
  residual activity: 105%
MAP3K9 (human); compound 1.0 µM
  residual activity: 108%
MAP3K9 (human); compound 10.0 µM
  residual activity: 100%
ERBB4 (human); compound 0.1 µM
  residual activity: 127%
ERBB4 (human); compound 10.0 µM
  residual activity: 105%
PHKG1 (human); compound 0.1 µM
  residual activity: 99%
PHKG1 (human); compound 1.0 µM
  residual activity: 86%
PHKG1 (human); compound 10.0 µM
  residual activity: 76%
PRKAA1 or PRKAA2 (rat); compound 0.1 µM
  residual activity: 104%
PRKAA1 or PRKAA2 (rat); compound 1.0 µM
  residual activity: 96%
PRKAA1 or PRKAA2 (rat); compound 10.0 µM
  residual activity: 94%
MAPKAPK3 (human); compound 0.1 µM
  residual activity: 115%
MAPKAPK3 (human); compound 1.0 µM
  residual activity: 119%
MAPKAPK3 (human); compound 10.0 µM
  residual activity: 123%
INSRR (human); compound 0.1 µM
  residual activity: 99%
INSRR (human); compound 1.0 µM
  residual activity: 94%
INSRR (human); compound 10.0 µM
  residual activity: 100%
MELK (human); compound 0.1 µM
  residual activity: 108%
MELK (human); compound 1.0 µM
  residual activity: 99%
MELK (human); compound 10.0 µM
  residual activity: 98%
TTK (human); compound 0.1 µM
  residual activity: 95%
TTK (human); compound 1.0 µM
  residual activity: 91%
TTK (human); compound 10.0 µM
  residual activity: 86%
AURKB (human); compound 0.1 µM
  residual activity: 100%
AURKB (human); compound 1.0 µM
  residual activity: 102%
AURKB (human); compound 10.0 µM
  residual activity: 93%
CDK2 CCNA2 (human); compound 0.1 µM
  residual activity: 98%
CDK2 CCNA2 (human); compound 1.0 µM
  residual activity: 79%
CDK2 CCNA2 (human); compound 10.0 µM
  residual activity: 88%
GSK3B (human); compound 0.1 µM
  residual activity: 83%
GSK3B (human); compound 1.0 µM
  residual activity: 88%
GSK3B (human); compound 10.0 µM
  residual activity: 71%
CHEK2 (human); compound 0.1 µM
  residual activity: 92%
CHEK2 (human); compound 1.0 µM
  residual activity: 84%
CHEK2 (human); compound 10.0 µM
  residual activity: 82%
IKBKB (human); compound 0.1 µM
  residual activity: 91%
IKBKB (human); compound 1.0 µM
  residual activity: 97%
IKBKB (human); compound 10.0 µM
  residual activity: 100%
EEF2K (human); compound 0.1 µM
  residual activity: 93%
EEF2K (human); compound 1.0 µM
  residual activity: 76%
EEF2K (human); compound 10.0 µM
  residual activity: 69%
MAPK13 (human); compound 0.1 µM
  residual activity: 90%
MAPK13 (human); compound 1.0 µM
  residual activity: 99%
MAPK13 (human); compound 10.0 µM
  residual activity: 90%
MAP2K2 (human); compound 0.1 µM
  residual activity: 104%
MAP2K2 (human); compound 1.0 µM
  residual activity: 103%
MAP2K2 (human); compound 10.0 µM
  residual activity: 109%
PRKCZ (human); compound 0.1 µM
  residual activity: 106%
PRKCZ (human); compound 1.0 µM
  residual activity: 108%
PRKCZ (human); compound 10.0 µM
  residual activity: 92%
ROCK2 (rat); compound 0.1 µM
  residual activity: 110%
ROCK2 (rat); compound 1.0 µM
  residual activity: 94%
ROCK2 (rat); compound 10.0 µM
  residual activity: 116%
MAPK1 (human); compound 0.1 µM
  residual activity: 98%
MAPK1 (human); compound 1.0 µM
  residual activity: 90%
MAPK1 (human); compound 10.0 µM
  residual activity: 100%
LCK (mouse); compound 0.1 µM
  residual activity: 106%
LCK (mouse); compound 1.0 µM
  residual activity: 92%
LCK (mouse); compound 10.0 µM
  residual activity: 84%
MYLK (human); compound 0.1 µM
  residual activity: 90%
MYLK (human); compound 1.0 µM
  residual activity: 95%
MYLK (human); compound 10.0 µM
  residual activity: 91%
CSNK2A1 (human); compound 0.1 µM
  residual activity: 78%
CSNK2A1 (human); compound 1.0 µM
  residual activity: 87%
CSNK2A1 (human); compound 10.0 µM
  residual activity: 83%
[1]; compound 0.1 µM
  residual activity: 93%
[1]; compound 1.0 µM
  residual activity: 89%
[1]; compound 10.0 µM
  residual activity: 98%
MARK4 (human); compound 0.1 µM
  residual activity: 90%
MARK4 (human); compound 1.0 µM
  residual activity: 89%
MARK4 (human); compound 10.0 µM
  residual activity: 93%
